Data published in patent US12649733B2, “3,6-diamino-pyridazin-3-yl derivatives, pharmaceutical compositions containing them and their uses as pro-apoptotic agents” (LES LABORATOIRES SERVIER, priority 2019, dated 2026).

Columns and labels:
Bcl-xL protein = biological target: T1, Bcl-xL protein (Homo sapiens, UniProt Q07817, N197C); test: Fluorescence quenching assay (PUMA peptide displacement); format: binding; conditions: 1 nM protein, 400 nM peptide, 2 hours at 23° C.; KI determined from IC50
T1 construct: (2-197)[N197C]; His-His (two His8 stretches joined by a Gly/Ala/Ser/Thr linker)
How it was run: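 Compounds were tested as an 11-point series in pH 7.4 HEPES/NaCl/Tween buffer with 5% DMSO, 2 h at 23 °C. Cy5-tagged Bcl-xL(2-197, N197C) at 1 nM and quencher-tagged PUMA peptide at 400 nM were used. Competitive binders restore fluorescence (620/680 nm), and IC50 values were converted to KI.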

H146 cells = test: H146 cell viability, MTT assay; format: cell-based; conditions: Homo sapiens, NCI-H146, 48 h, 48 h exposure
How it was run: (§1)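 Viability read by MTT reduction (OD 540 nm after overnight SDS/HCl lysis) after 48 h compound treatment of cells in RPMI 1640/10% FBS. Triplicates at nine concentrations, 3.16-fold apart; four-parameter curve fitting yields IC50.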

BCLXL [1] = biological target: T2, BCLXL (Homo sapiens, UniProt Q07817, V10N/V9A); test: Fluorescence polarisation assay (PUMA-based probe displacement); format: binding; further: 20 nM protein, 10 nM fluorescent probe
BCLXL [2] = biological target: T2, BCLXL; test: AlphaLISA assay (BIM peptide displacement); format: binding; conditions: 20 pM protein, 1 nM peptide
How it was run: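 Competitive displacement of fluorescein-labelled BIM peptide (1 nM) from biotinylated GST-BCL-XL(2-209) (20 pM) in 10 mM HEPES, 150 mM NaCl, 0.05% Tween 20, pH 7.4, 4% DMSO; 11-point dilutions. Overnight at 23° C with acceptor beads, then donor beads 2 h; Alpha signal at 615 nm.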

MOLT-4 cells = test: MOLT-4 cell viability, MTT assay; format: cell-based; conditions: Homo sapiens, MOLT-4, 48 h, 48 h exposure
How it was run: as §1

T1 sequence (Q07817 2-197 N197C): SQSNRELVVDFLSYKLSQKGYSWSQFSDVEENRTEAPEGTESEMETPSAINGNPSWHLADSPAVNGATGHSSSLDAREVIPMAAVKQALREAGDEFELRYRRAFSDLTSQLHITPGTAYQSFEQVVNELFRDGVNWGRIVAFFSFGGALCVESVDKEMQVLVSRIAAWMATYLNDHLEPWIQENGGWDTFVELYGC
T2 sequence (Q07817 with tags, fused parts or gaps V9A/V10N): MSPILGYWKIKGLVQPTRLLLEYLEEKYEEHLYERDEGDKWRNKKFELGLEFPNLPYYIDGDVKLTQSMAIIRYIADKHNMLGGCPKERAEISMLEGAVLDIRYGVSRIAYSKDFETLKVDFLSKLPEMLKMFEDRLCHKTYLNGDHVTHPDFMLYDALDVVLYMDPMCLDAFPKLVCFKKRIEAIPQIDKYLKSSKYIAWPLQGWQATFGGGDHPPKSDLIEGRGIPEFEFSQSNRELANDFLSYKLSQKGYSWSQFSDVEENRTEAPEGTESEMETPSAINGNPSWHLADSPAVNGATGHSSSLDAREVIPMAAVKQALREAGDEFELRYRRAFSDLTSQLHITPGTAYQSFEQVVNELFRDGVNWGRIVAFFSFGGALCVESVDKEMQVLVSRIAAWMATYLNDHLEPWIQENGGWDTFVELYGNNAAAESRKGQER

Question: How did the Ki (Bcl-xL protein) turn out when `Cc1cc(N(C)c2nc(C(=O)O)c(CCCOc3ccc(C#CCN(C)C)cc3F)s2)nnc1Nc1nc2ccccc2s1` [Example 50, 2-[[6-(1,3-Benzothiazol-2-ylamino)-5-methyl-pyridazin-3-yl]-methyl-amino]-5-[3-[4-[3-(dimethylamino)prop-1-ynyl]-2-fluoro-phenoxy]propyl]thiazole-4-carboxylic acid] was run?
Answer: 0.0044 nM

Question: What about the IC50 (H146 cells) of the same compound?
Answer: 2.84 nM

Question: And the Ki (BCLXL [1])?
Answer: 1.2 nM

Question: And the IC50 (BCLXL [2])?
Answer: 0.0074 nM

Question: What about the IC50 (MOLT-4 cells) of the same compound?
Answer: 0.462 nM

Question: `CN(C)CC#Cc1ccc(OCCCc2sc(N(C)c3cc(C4CC4)c(Nc4nc5ccccc5s4)nn3)nc2C(=O)O)c(F)c1` [Example 62, 2-({6-[(1,3-Benzothiazol-2-yl)amino]-5-cyclopropylpyridazin-3-yl}(methyl)amino)-5-(3-{4-[3-(dimethylamino)prop-1-yn-1-yl]-2-fluorophenoxy}propyl)-1,3-thiazole-4-carboxylic acid] was tested. Which Ki (Bcl-xL protein) did it give?
Answer: 0.006 nM

Question: What about the IC50 (H146 cells) of the same compound?
Answer: 4.66 nM

Question: And the Ki (BCLXL [1])?
Answer: < 1 nM

Question: What about the IC50 (BCLXL [2]) of the same compound?
Answer: 0.11 nM

Question: And the IC50 (MOLT-4 cells)?
Answer: 0.444 nM

Question: With `CNCC#Cc1ccc(OCCCc2sc(N(CCC(O)COC)c3cc(C)c(Nc4nc5ccccc5s4)nn3)nc2C(=O)O)c(F)c1` (centres unmarked) [Example 109, 2-[[6-(1,3-Benzothiazol-2-ylamino)-5-methyl-pyridazin-3-yl]-(3-hydroxy-4-methoxy-butyl)amino]-5-[3-[2-fluoro-4-[3-(methylamino)prop-1-ynyl]phenoxy]propyl]thiazole-4-carboxylic acid] as the compound, how does the Ki (Bcl-xL protein) read?
Answer: 0.0011 nM

Question: And the IC50 (H146 cells)?
Answer: 6.38 nM

Question: What about the Ki (BCLXL [1]) of the same compound?
Answer: < 1 nM

Question: And the IC50 (BCLXL [2])?
Answer: 0.011 nM

Question: And the IC50 (MOLT-4 cells)?
Answer: 19.8 nM

Question: Which results are given for `Cc1cc(N(CCCC(O)CN(C)CCN(C)C)c2nc(C(=O)O)c(CCCOc3ccc(C#CCN(C)C)cc3F)s2)nnc1Nc1nc2ccccc2s1` (centres unmarked) [Example 124, 2-[[6-(1,3-Benzothiazol-2-ylamino)-5-methyl-pyridazin-3-yl]-[5-[2-(dimethylamino)ethyl-methyl-amino]-4-hydroxy-pentyl]amino]-5-[3-[4-[3-(dimethylamino)prop-1-ynyl]-2-fluoro-phenoxy]propyl]thiazole-4-carboxylic acid]?
Answer: Ki (Bcl-xL protein): 0.0017 nM; IC50 (H146 cells): 50.6 nM; Ki (BCLXL [1]): < 1 nM; IC50 (BCLXL [2]): 0.0076 nM; IC50 (MOLT-4 cells): 19.2 nM

Question: Which results are given for `Cc1cc(N(CCCCO)c2nc(C(=O)O)c(CCCOc3ccc(C#CCN(C)C)cc3F)s2)nnc1Nc1nc2ccccc2s1` [Example 134, 2-[[6-(1,3-Benzothiazol-2-ylamino)-5-methyl-pyridazin-3-yl]-(4-hydroxybutyl)amino]-5-[3-[4-[3-(dimethylamino)prop-1-ynyl]-2-fluoro-phenoxy]propyl]thiazole-4-carboxylic acid]?
Answer: Ki (Bcl-xL protein): 0.001 nM; IC50 (H146 cells): 1.91 nM; Ki (BCLXL [1]): < 1 nM; IC50 (BCLXL [2]): 0.0053 nM; IC50 (MOLT-4 cells): 0.783 nM

Question: With `Cc1cc(N(CCCCCO)c2nc(C(=O)O)c(CCCOc3ccc(C#CCN(C)C)cc3F)s2)nnc1Nc1nc2ccccc2s1` [Example 141, 2-[[6-(1,3-Benzothiazol-2-ylamino)-5-methyl-pyridazin-3-yl]-(5-hydroxypentyl)amino]-5-[3-[4-[3-(dimethylamino)prop-1-ynyl]-2-fluoro-phenoxy]propyl]thiazole-4-carboxylic acid] as the compound, how does the Ki (Bcl-xL protein) read?
Answer: 0.0055 nM

Question: And the Ki (BCLXL [1])?
Answer: < 1 nM

Question: And the IC50 (BCLXL [2])?
Answer: 0.014 nM

Question: Which results are given for `CNCC#Cc1ccc(OCCCc2sc(N(CCCC(O)C[N+](C)(C)C)c3cc(C)c(Nc4nc5ccccc5s4)nn3)nc2C(=O)[O-])c(F)c1` (centres unmarked) [Example 144, 2-[[6-(1,3-Benzothiazol-2-ylamino)-5-methyl-pyridazin-3-yl]-[4-hydroxy-5-(trimethylammonio)pentyl]amino]-5-[3-[2-fluoro-4-[3-(methylamino)prop-1-ynyl]phenoxy]propyl]thiazole-4-carboxylate]?
Answer: Ki (Bcl-xL protein): 0.0039 nM; IC50 (H146 cells): 14500 nM; Ki (BCLXL [1]): < 1 nM; IC50 (BCLXL [2]): 0.014 nM; IC50 (MOLT-4 cells): 430 nM

Question: For `CNCC#Cc1ccc(OCCCc2sc(N(CCCC(O)C[N+](C)(C)CCCS(=O)(=O)[O-])c3cc(C)c(Nc4nc5ccccc5s4)nn3)nc2C(=O)O)c(F)c1` (centres unmarked) [Example 146, 3-[[5-[[6-(1,3-Benzothiazol-2-ylamino)-5-methyl-pyridazin-3-yl]-[4-carboxy-5-[3-[2-fluoro-4-[3-(methylamino)prop-1-ynyl]phenoxy]propyl]thiazol-2-yl]amino]-2-hydroxy-pentyl]-dimethyl-ammonio]propane-1-sulfonate], which Ki (Bcl-xL protein) is on record?
Answer: 0.0012 nM

Question: What about the IC50 (H146 cells) of the same compound?
Answer: 971 nM

Question: What about the Ki (BCLXL [1]) of the same compound?
Answer: < 1 nM

Question: And the IC50 (BCLXL [2])?
Answer: 0.022 nM

Question: And the IC50 (MOLT-4 cells)?
Answer: 668 nM

Question: `CNCC(O)CCCN(c1cc(C)c(Nc2nc3ccccc3s2)nn1)c1nc(C(=O)O)c(CCCOc2ccc(C#CCN(C)C)cc2F)s1` (centres unmarked) [Example 150, 2-[[6-(1,3-Benzothiazol-2-ylamino)-5-methyl-pyridazin-3-yl]-[4-hydroxy-5-(methylamino)pentyl]amino]-5-[3-[4-[3-(dimethylamino)prop-1-ynyl]-2-fluoro-phenoxy]propyl]thiazole-4-carboxylic acid] was tested. Which Ki (Bcl-xL protein) did it give?
Answer: 0.0017 nM

Question: And the IC50 (H146 cells)?
Answer: 16.8 nM

Question: What about the Ki (BCLXL [1]) of the same compound?
Answer: < 1 nM

Question: What about the IC50 (BCLXL [2]) of the same compound?
Answer: 0.013 nM

Question: What about the IC50 (MOLT-4 cells) of the same compound?
Answer: 136 nM

Question: For `C/C(=C\c1sc(N(C)c2cc(C)c(Nc3nc4ccccc4s3)nn2)nc1C(=O)O)COc1ccc(C#CCN(C)C)cc1F` [Example 163, 2-({6-[(1,3-Benzothiazol-2-yl)amino]-5-methylpyridazin-3-yl}(methyl)amino)-5-[(1E)-3-{4-[3-(dimethylamino)prop-1-yn-1-yl]-2-fluorophenoxy}-2-methylprop-1-en-1-yl]-1,3-thiazole-4-carboxylic acid], which Ki (Bcl-xL protein) is on record?
Answer: 0.02 nM

Question: And the IC50 (H146 cells)?
Answer: 1040 nM

Question: And the Ki (BCLXL [1])?
Answer: < 1 nM

Question: What about the IC50 (BCLXL [2]) of the same compound?
Answer: 0.18 nM

Question: What about the IC50 (MOLT-4 cells) of the same compound?
Answer: 96.2 nM

Question: How did the Ki (Bcl-xL protein) turn out when `Cc1cc(N(C)c2nc(C(=O)O)c(CC(O)COc3ccc(C#CCN(C)C)cc3F)s2)nnc1Nc1nc2ccccc2s1` (centres unmarked) [Example 164, 2-({6-[(1,3-benzothiazol-2-yl)amino]-5-methylpyridazin-3-yl}(methyl)amino)-5-(3-{4-[3-(dimethylamino)prop-1-yn-1-yl]-2-fluorophenoxy}-2-hydroxypropyl)-1,3-thiazole-4-carboxylic acid] was run?
Answer: 0.0019 nM

Question: What about the IC50 (H146 cells) of the same compound?
Answer: 34.6 nM

Question: And the Ki (BCLXL [1])?
Answer: < 1 nM

Question: What about the IC50 (BCLXL [2]) of the same compound?
Answer: 0.0071 nM

Question: What about the IC50 (MOLT-4 cells) of the same compound?
Answer: 12.9 nM

Question: How did the Ki (Bcl-xL protein) turn out when `Cc1cc(N(CCCCCN(C)C2CCNCC2)c2nc(C(=O)O)c(CCCOc3ccc(C#CCN(C)C)cc3F)s2)nnc1Nc1nc2ccccc2s1` [Example 165, 2-[[6-(1,3-Benzothiazol-2-ylamino)-5-methyl-pyridazin-3-yl]-[5-[methyl(4-piperidyl)amino]pentyl]amino]-5-[3-[4-[3-(dimethylamino)prop-1-ynyl]-2-fluoro-phenoxy]propyl]thiazole-4-carboxylic acid] was run?
Answer: 0.0059 nM

Question: What about the IC50 (H146 cells) of the same compound?
Answer: 211 nM

Question: What about the Ki (BCLXL [1]) of the same compound?
Answer: < 1 nM

Question: And the IC50 (BCLXL [2])?
Answer: 0.019 nM

Question: What about the IC50 (MOLT-4 cells) of the same compound?
Answer: 430 nM

Question: `Cc1cc(N(CCCCCNCCN2CCOCC2)c2nc(C(=O)O)c(CCCOc3ccc(C#CCN(C)C)cc3F)s2)nnc1Nc1nc2ccccc2s1` [Example 166, 2-[[6-(1,3-Benzothiazol-2-ylamino)-5-methyl-pyridazin-3-yl]-[5-(2-morpholinoethylamino)pentyl]amino]-5-[3-[4-[3-(dimethylamino)prop-1-ynyl]-2-fluoro-phenoxy]propyl]thiazole-4-carboxylic acid] was tested. Which Ki (Bcl-xL protein) did it give?
Answer: 0.0026 nM

Question: What about the IC50 (H146 cells) of the same compound?
Answer: 142 nM

Question: And the Ki (BCLXL [1])?
Answer: < 1 nM

Question: What about the IC50 (BCLXL [2]) of the same compound?
Answer: 0.0092 nM

Question: And the IC50 (MOLT-4 cells)?
Answer: 172 nM

Question: Which results are given for `Cc1cc(N(CCCCCNCCN2CCN(C)CC2)c2nc(C(=O)O)c(CCCOc3ccc(C#CCN(C)C)cc3F)s2)nnc1Nc1nc2ccccc2s1` [Example 167, 2-[[6-(1,3-Benzothiazol-2-ylamino)-5-methyl-pyridazin-3-yl]-[5-[2-(4-methylpiperazin-1-yl)ethylamino]pentyl]amino]-5-[3-[4-[3-(dimethylamino)prop-1-ynyl]-2-fluoro-phenoxy]propyl]thiazole-4-carboxylic acid]?
Answer: Ki (Bcl-xL protein): 0.0029 nM; IC50 (H146 cells): 432 nM; Ki (BCLXL [1]): < 1 nM; IC50 (BCLXL [2]): 0.013 nM; IC50 (MOLT-4 cells): 400 nM

Question: `Cc1cc(N(CCCCNCCN2CCN(C)CC2)c2nc(C(=O)O)c(CCCOc3ccc(C#CCN(C)C)cc3F)s2)nnc1Nc1nc2ccccc2s1` [Example 168, 2-[[6-(1,3-Benzothiazol-2-ylamino)-5-methyl-pyridazin-3-yl]-[4-[2-(4-methylpiperazin-1-yl)ethylamino]butyl]amino]-5-[3-[4-[3-(dimethylamino)prop-1-ynyl]-2-fluoro-phenoxy]propyl]thiazole-4-carboxylic acid] was tested. Which Ki (Bcl-xL protein) did it give?
Answer: 0.0026 nM

Question: And the Ki (BCLXL [1])?
Answer: < 1 nM

Question: What about the IC50 (BCLXL [2]) of the same compound?
Answer: 0.012 nM

Question: And the IC50 (MOLT-4 cells)?
Answer: 178 nM

Question: For `CNCCN(C)CC(O)CCCN(c1cc(C)c(Nc2nc3ccccc3s2)nn1)c1nc(C(=O)O)c(CCCOc2ccc(C#CCN(C)C)cc2F)s1` (centres unmarked) [Example 169, 2-[[6-(1,3-Benzothiazol-2-ylamino)-5-methyl-pyridazin-3-yl]-[4-hydroxy-5-[methyl-[2-(methylamino)ethyl]amino]pentyl]amino]-5-[3-[4-[3-(dimethylamino)prop-1-ynyl]-2-fluoro-phenoxy]propyl]thiazole-4-carboxylic acid], which Ki (Bcl-xL protein) is on record?
Answer: 0.0044 nM

Question: What about the IC50 (H146 cells) of the same compound?
Answer: 73.1 nM

Question: What about the Ki (BCLXL [1]) of the same compound?
Answer: < 1 nM

Question: And the IC50 (BCLXL [2])?
Answer: 0.0099 nM

Question: And the IC50 (MOLT-4 cells)?
Answer: 106 nM
